Values of other authors as cited in US11160745B2, “Methods and compositions for topical delivery for skin care” (priority 2014, dated 2021).
Like-named read-outs stand apart in the source and are kept apart here.

How the values were obtained:
wrinkles around the eyes = details: for Reduction of the depth of wrinkles: independent study; for Decrease in severity of wrinkles around the eyes: ONV emulsion containing 10% Argireline solution, twice a day
ternary SNARE complex = target: T1, ternary SNARE complex (Homo sapiens, UniProt Q16623); details: immunoblot with anti-syntaxin mAb
T1 construct: Chromaffin cells were prepared and further separated from erythrocytes and other impurities by centrifugation gradient; endogenous in cells; complex immunoprecipitated

chromaffin cells = details: tritiated noradrenaline/adrenaline, liquid scintillation counting

T1 sequence (Q16623 whole entry, one chain of several): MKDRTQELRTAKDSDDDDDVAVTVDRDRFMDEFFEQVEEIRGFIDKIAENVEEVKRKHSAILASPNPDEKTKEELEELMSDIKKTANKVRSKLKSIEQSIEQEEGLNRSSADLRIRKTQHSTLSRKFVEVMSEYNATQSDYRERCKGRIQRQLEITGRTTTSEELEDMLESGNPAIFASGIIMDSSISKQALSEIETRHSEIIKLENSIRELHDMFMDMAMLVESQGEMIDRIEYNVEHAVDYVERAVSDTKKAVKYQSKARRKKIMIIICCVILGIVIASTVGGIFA

Substance: Ac-EEMQRR-NH2 [Argireline, (6S,9S,12S,15S,18S,21 S)-21-Acetamido-1-amino-12-(3-amino-3-oxopropyl)-6-carbamoyl-18-(2-carboxyethyl)-9-(3-guanidinopropyl)-1-imino-15-(2-(methylthio)ethyl)-8,11,14,17,20-pentaoxo-2,7,10,13,16,19-hexaazatetracosan-24-oic acid]
- Reduction of the depth of wrinkles (wrinkles around the eyes; after 15 days of treatment): up to 17%
- Decrease in severity of wrinkles around the eyes (wrinkles around the eyes; after 15 days): up to 17%
- Decrease in severity of wrinkles around the eyes (wrinkles around the eyes; after 30 days): up to 27%
- Reduction of the depth of wrinkles (wrinkles around the eyes; following 30 days of treatment): up to 27%
- SNARE complex formation (ternary SNARE complex): modulates SNARE complex formation at concentrations in the mM range
- Release of catecholamines (adrenaline and noradrenaline) (chromaffin cells): significant modulation of both neurotransmitters at nM concentrations
